Laboratory results reported in US20250250582A1, “Plant Cells and Plants Modified to Increase Herbicide Resistance and Stress Tolerance and Methods of Using the Same” (The Board of Trustees of the University of Arkansas, priority 2018, published 2025).
Several values for one entry are separate records, joined by “and”; a condition that tells them apart may be missing. Equal entries are not always repeated.

How the values were obtained:
[1] = tested on: susceptible E. colona (ECO-S); assay: Herbicide resistance profile of ECO-S; assay type: in vivo, Echinochloa colona
Excerpt: (§1) Beginning in 2010, through the 2016 cropping cycle, Echinochloa spp. from throughout the rice producing counties of Arkansas, USA, located along the Mississippi River were sampled for a survey of the current status of herbicide resistance. Seeds were bulk sampled from plants that had matured in rice and soybean production fields, which had survived at least one herbicide application, were collected and sent to the University of Arkansas Altheimer Laboratory in Fayetteville for characterization and evaluation of herbicide resistance to common rice herbicides. […] From this screening program, two populations of E. colona were selected for use in this experiment. […] To establish inbred and homozygous accessions for the experiment, a single plant, verified as resistant/susceptible of ECO-R and ECO-S were grown in isolation to produce seed for further experiments.
Accession source and population profiling. From 2010 to 2016, the University of Arkansas weed physiology group has been collecting putative herbicide-resistant Echinochloa populations from rice production fields throughout the state of Arkansas. […] Collections took place in the late summer to early fall prior to rice harvest; these accessions were bulk sampled by in-field location and farm, with field histories collected when possible. […]

[2] = tested on: ECO-R compared to ECO-S after herbicide treatment; assay: RNA-sequencing differential gene expression, ECO-R-T compared to ECO-S-T
Excerpt: Pure-line generated seed of each accession were germinated in pots containing potting soil within a temperature/light controlled growth chamber set to a 14-hr day length, 33 C day temperature, and 24 C night time to simulate environmental conditions early in the rice growing season. A single plant was maintained in each of the pots and used for the treatments; two pots were used as individual biological replicates. […] Pots for each of the respective treatments were labeled as either ECO-R/S-T for the treated samples and ECO-R/S-N for the non-treated counterpart. To minimize the effect that the sprayer may play in the application, both plants of the ECO-R and ECO-S were treated at the same time. After approximately 30 minutes, allowing for the plants to dry, the treated and non-treated plants of both accessions were moved back into the growth chamber. Precisely 24-hours after application, the aboveground portion of each of the plants were removed and immediately frozen in liquid nitrogen to cease all biological function. Samples were then transferred to RNAlater™-ICE (Invitrogen, Carlsbad CA, USA) for shipment to the Clemson University Genomics Institute (CUGI), in Clemson, South Carolina.
RNA was extracted from the young leaf tissues of both replications for the ECO-R and ECO-S, T and N samples, at Clemson University. Total RNA was extracted with a kit according to the manufactures instructions. The extracted RNA was treated with DNase (Invitrogen, Calsbad, CA, USA) to remove any DNA contamination prior to further processing. The samples were prepared for sequencing by CUGI. For library preparation, the TruSeq Stranded Total RNA kit (Illumina Inc., San Diego, CA, USA) was used according to the instructions provided by the manufacturer to produce a paired-end library for sequencing. Ribosomal RNA was removed using target-specific oligonucleotides paired with rRNA removal beads, removing all cytoplasmic and mitochondrial rRNA that may result in poor quality results. RNA was fragmented and reverse transcribed to cDNA using random primers, followed by a second strand cDNA synthesis. Each fragment is then ligated with an additional ‘A’ and an adapter for sequencing. The PCR enriched product is then used to create the final cDNA library. All samples were sequenced on an Illumina Hiseq 2500 platform housed in the Holdings Cancer Center at the Medical University of South Carolina, Charleston, SC, USA. Samples, regardless of treatments or replication were ran across three lanes to reduce sequencing errors from the equipment. The resulting data were processed by CUGI.
A de novo transcriptome was assembled from the treatments described for this experiment as well as several treatments, which included herbicides profiled in ECO-R. The treatments were applied to both ECO-R and ECO-S samples with two replications as described previously. In total, 20 individual plants, from both the ECO-R and ECO-S accessions, as well as T and NT samples, were used for the assembly. The transcriptome was assembled using the Trinity RNA-Seq pipeline (Broad Institute, Cambridge, MA, USA). Raw data were assessed for quality using FastQC (Babraham Institute, Cambridge, UK) and then processed to remove adapter sequences and low quality bases using a sliding window method. The processed data were then rerun using FastQC to ensure high quality reads. Using the TrinityRNASeq 2.2.0 software, the samples were normalized, by replication, using a coverage size of 100 and kmer of 32. The normalized reads were then assembled as transcripts and genes using Trinity with the stranded library set as the default.

[3] = tested on: multiple-resistant E. colona (ECO-R); assay: Herbicide resistance profile of ECO-R; assay type: in vivo, Echinochloa colona; conditions: data not shown
Excerpt: as §1
Accession source and population profiling. From 2010 to 2016, the University of Arkansas weed physiology group has been collecting putative herbicide-resistant Echinochloa populations from rice production fields throughout the state of Arkansas. […] Collections took place in the late summer to early fall prior to rice harvest; these accessions were bulk sampled by in-field location and farm, with field histories collected when possible. All of the samples were submitted to the University of Arkansas Altheimer Laboratory for assessment of their resistance profile and characterized according to their species. […] Populations with unique profiles and of interest for further research were then grown in isolation to produce pureline seed. […] Another accession, E. colona susceptible (ECO-S), was also selected and grown in isolation. This accession was selected because of its similar cropping history and geographic location, as well as its high level of susceptibility to the herbicides of interest.

[4] = tested on: resistant Echinochloa species; assay: Determination of resistance level (visual injury), resistant accessions; assay type: in vivo, E. colona and E. crus-galli; conditions: visual 3 wk after treatment
Excerpt: The experiment was repeated once.

CCC(=O)Nc1ccc(Cl)c(Cl)c1 [propanil]
tolerance observed ([1]; ECO-S (Example 1)): approximately twice
tolerance observed ([1]; ECO-S (Example 2)): ~3 × field dose
ABA 8′-hydroxylase 1 transcripts fold change ([2]; ECO-R-T vs ECO-S-T, 24 h): < −6.5 fold
ABA receptor PYL5 fold change ([2]; ECO-R-T vs ECO-S-T, 24 h): −4.8 fold
ABA receptor PYL8 fold change ([2]; ECO-R-T vs ECO-S-T, 24 h): −3.7 fold
ACC synthase fold change ([2]; ECO-R-T vs ECO-S-T, 24 h): 8.6 fold
Beta-glucosidase 22 fold change ([2]; ECO-R-T vs ECO-S-T, 24 h): 5.9 fold
CYP71A1 Fold Change ([2]; ECO-R-T vs ECO-S-T, 24 h): 3.6 fold
CYP72A15 Fold Change ([2]; ECO-R-T vs ECO-S-T, 24 h): 6.6 fold and 11.3 fold
DNA-directed RNA polymerase 1 subunit RPA112 III fold change ([2]; ECO-R-T vs ECO-S-T, 24 h): 10.3 fold
ERF4 fold change ([2]; ECO-R-T vs ECO-S-T, 24 h): 4.3 fold
ERF7 fold change ([2]; ECO-R-T vs ECO-S-T, 24 h): 8 fold
ERF11 fold change ([2]; ECO-R-T vs ECO-S-T, 24 h): 3.4 fold
GST1 fold change ([2]; ECO-R-T vs ECO-S-T, 24 h): 3.9 fold
GST4 fold change ([2]; ECO-R-T vs ECO-S-T, 24 h): > 5.3 fold
GSTU17 fold change ([2]; ECO-R-T vs ECO-S-T, 24 h): 10.9 fold
UGT73D1 fold change ([2]; ECO-R-T vs ECO-S-T, 24 h): 7.3 fold
UGT88A1 Fold Change ([2]; ECO-R-T vs ECO-S-T, 24 h): 3.2 fold
UGT88F3 fold change ([2]; ECO-R-T vs ECO-S-T, 24 h): 5.9 fold
ferredoxin-6 fold change ([2]; ECO-R-T vs ECO-S-T, 24 h): −6.5 fold
nitrate reductase fold change ([2]; ECO-R-T vs ECO-S-T, 24 h): < −6 fold
nitrate transporters fold change ([2]; ECO-R-T vs ECO-S-T, 24 h): < −4 fold
polymerase III subunit 2 fold change ([2]; ECO-R-T vs ECO-S-T, 24 h): 10.8 fold
trehalose biosynthesis enzymes fold change ([2]; ECO-R-T vs ECO-S-T, 24 h): < −3 fold
Phosphoenolpyruvate carboxylase (PEPc) kinase 1 fold change ([2]; in vivo): > 5 fold
level of resistance [3]: > 8 × field dose
injury of ECO187 ([4]; 2 X dose (4480 g ai/ha)): 97%
injury of resistant Echinochloa species ([4]; 2 X dose, propanil range excludes ECO187): 27-57%
